Data: publication PMC9423820, “Melittin-derived peptides exhibit variations in cytotoxicity and antioxidant, anti-inflammatory and allergenic activities” (Animal Cells and Systems, 2022)
Where no end group is shown, it is not given here.

What was measured:
[1] = ABTS radical scavenging assay; type: biochemical; set-up: key to Anti-oxidant activity (summary): +, active; -, inactive; conditions: for Anti-oxidant activity (summary): Figure 4B summary, ABTS radical scavenging; for antioxidant activity (ABTS radical scavenging), in words: 4 min reaction, absorbance 650 nm, resveratrol as positive control, n = 3
Procedure: The antioxidant activities of melittin and melittin-derived peptides were measured using the 2,2'-azino-bis(3-ethylbenzothiazoline-6-sulfonic acid) (ABTS) radical scavenging assay. ABTS^+ radical solution was prepared by mixing equal volumes of 7 mM ABTS solution with 2.4 mM persulfate solution and allowing them to react in the dark at 25 °C for 24 h. Before this reaction, the ABTS^+ radical solution was diluted with distilled water to obtain an absorbance of 0.7 ± 0.01 units at 650 nm. Melittin and melittin-derived peptides (20 µL each) at various concentrations were then reacted with 80 µL of ABTS^+ radical solution for 4 min in the dark, and absorbance was measured at 650 nm using an EMax Plus microplate reader (Molecular Devices, San Jose, CA, USA). ABTS^+ radical scavenging activity was calculated using the following formula: ABTS+ radical scavenging activity (%) = [1 − (Abssample − Absblank of sample) / Abscontrol] × 100, where Abscontrol is the absorbance of ABTS^+ radical solution diluted in water, Abssample is the absorbance of ABTS^+ radical solution mixed with melittin or melittin-derived peptides, and Absblank of sample is the absorbance of water mixed with melittin or melittin-derived peptides. All experiments were performed in triplicates (n = 3).

BEAS-2B cells = experiment: MTS cell viability assay (CellTiter 96 Aqueous One), BEAS-2B; type: cell-based, human; set-up: key to Cytotoxicity (summary): +, active; -, inactive; conditions: 24 h; for Cytotoxicity (summary): Figure 4B summary, MTS assay, BEAS-2B and HeLa cells
Source text: Human pulmonary bronchial epithelial BEAS-2B, human epithelial cervix carcinoma HeLa, murine macrophage RAW 264.7, and rat basophilic leukemia mast RBL-2H3 cells were purchased from American Type Culture Collection (ATCC, VA, USA). BEAS-2B cells were maintained in bronchial epithelial basal medium (BEBM; Lonza, Basel, Switzerland). HeLa, RAW 264.7, and RBL-2H3 cells were maintained in DMEM supplemented with 10% heat-inactivated fetal bovine serum (Welgene, Gyeongsangbuk-do, Korea) and 1% penicillin and streptomycin (Welgene) at 37 °C in a humidified atmosphere of 5% CO2. Melittin and its derived peptides (Figure 1A) were synthesized by Peptron, Inc. (Daejeon, Korea).
The effect of melittin and melittin-derived peptides on cell viability was evaluated using the CellTiter 96^R Aqueous One Solution Cell Proliferation Assay (Promega, Madison, WI, USA), according to the manufacturer’s instructions (Cambronero-Urena et al. [2021]). BEAS-2B and HeLa cells were seeded (3,000 cells/well) in 96-well plates and incubated for 24 h. Culture medium containing melittin or melittin-derived peptides was added to the plates, and they were incubated for 24 h. Thereafter, 20 μL of MTS reagent was added, and absorbance was measured at 490 nm using a microplate reader (Molecular Devices EMax Plus). The formula used to calculate the cell viability is as follows: Cell viability (%)={(A Sample−A [Blank]) / (A [Control])−A [Blank])}×100, Where A is the absorbance for a given wavelength.

[2] = test system: TNF-α, IL-6, IL-1β mRNA expression in RAW 264.7 cells; experiment: qRT-PCR of inflammatory cytokine mRNA in LPS-stimulated RAW 264.7 cells; type: cell-based, murine; set-up: key to Anti-inflammatory activity (summary): +, active; -, inactive; conditions: for Anti-inflammatory activity (summary): Figure 4B summary, LPS-stimulated RAW 264.7 cells
Procedure: RAW 264.7 cells (1 × 10^5 cells/well) were seeded in 6-well plates and incubated for 24 h (Ahmed et al. [2020]). Next, culture medium with melittin or melittin-derived peptides was added to the plates, and they were incubated for 24 h. Thereafter, lipopolysaccharide (LPS) was added to the medium at a final concentration of 1 μg/mL, followed by incubation for 6 h. The medium was completely removed, the cells were washed with cold PBS and lysed with 1 mL of RiboEx (GeneAll, Korea), and RNA was extracted using a Hybrid-R RNA purification kit (GeneAll). To synthesize cDNA, RNA was quantified using a Nabi UV/Vis nanospectrophotometer (MicroDigital, Korea), and 1 μL of random hexamer (100 pmol/μL) and 1 μL of dNTP mix (10 mM) were added to each RNA sample (1 μg). The total volume was adjusted to 10 μL using DEPC-treated water. The mixture was subjected to heating at 65 °C for 5 min and immediately cooled on ice. Thereafter, 1 μL M-MLV reverse transcriptase (Promega), 4 μL 5X M-MLV RT reaction buffer (Promega), 1 μL RNase inhibitor (Enzynomics, Korea), and 4 μL DEPC-treated water were added to each RNA sample, and the mixture was incubated at 25 °C for 10 min and then at 50 °C for 1 h.
The mRNA expression levels of inflammatory cytokines were analyzed using qRT-PCR. The reaction mixture contained 10 μL of 2X Prime Q-master Mix (GENET BIO, Korea), 1.5 μL of 10 pmol/μL forward primer, 1.5 μL of 10 pmol/μL reverse primer, 5 μL of DEPC-treated water, and 2 μL of cDNA (1/10 dilution); qRT-PCR was performed using AriaMx (Agilent, USA) as per the following conditions: 40 cycles of denaturation at 95 °C for 20 s, annealing at 58 °C for 20 s, and elongation at 72 °C for 20 s. The primers used for the qRT-PCR are listed in Supplementary 1.

[3] = test system: IκBα phosphorylation in RAW 264.7 cells; experiment: Immunoblot of phospho-IκBα in LPS-stimulated RAW 264.7 cells; type: cell-based, murine; conditions: RAW 264.7, 24 h pretreatment (melittin 1.25 μM; P1 2.5 μM; P2 indicated concentrations), LPS 1 μg/mL 1 h, n = 3
Procedure: RAW 264.7 cells (1 × 10^5 cells/well) were seeded in a 6-well plate and incubated for 24 h. Medium containing melittin or melittin-derived peptides was added, and the plates were incubated for 24 h. Thereafter, LPS was added to the medium at a final concentration of 1 μg/mL, followed by incubation for 1 h. To prepare protein samples, the medium was completely removed by aspiration, and the cells were washed with cold PBS and then lysed with lysis buffer [10 mM Tris-HCl (pH 7.5), 100 mM NaCl, 1 mM EDTA, 1 mM EGTA, 1% Triton X-100, 10% glycerol, and 0.1% SDS] with a protease inhibitor cocktail (Roche, Switzerland). The protein samples were sonicated and centrifuged at 16,000 × g for 10 min. The supernatant was then transferred to a new tube and used for immunoblot analysis. The protein samples were separated using sodium dodecyl sulfate-polyacrylamide gel electrophoresis (SDS-PAGE), and the separated proteins were transferred onto a nitrocellulose membrane (0.45 μm, Merck Millipore, USA). […] The unbound antibodies were washed with PBS-T, and the antibodies bound to the nitrocellulose membrane were detected using the SuperSignal system (SuperSignal; Thermo Fisher Scientific), using horseradish peroxidase-conjugated secondary antibodies (Abcam, Cambridge, UK).

RBL-2H3 cells = experiment: β-Hexosaminidase release (degranulation) assay; type: cell-based, rat; set-up: key: +, active; -, inactive; conditions: Figure 4B summary
Procedure: The β-hexosaminidase release assay was performed as previously described. RBL-2H3 cells (5 × 10^4 cells/well) were seeded in 96-well plates and incubated for 24 h. The medium was removed, and the cells were washed twice with siraganian buffer (119 mM NaCl, 5 mM KCl, 5.6 mM glucose, 0.4 mM MgCl2, 25 mM PIPES, 40 mM NaOH, 1 mM CaCl2, and 0.1% BSA, pH 7.2), and then incubated in 100 μL siraganian buffer supplemented with compound 48/80 (Sigma-Aldrich, St. Louis, MO, USA), melittin, or melittin-derived peptides for 1 h. Compound 48/80 was used as a positive control. The reaction was terminated by incubation at 4 °C for 10 min. The fluorescence of β-hexosaminidase in the supernatant was measured with a β-hexosaminidase activity assay kit (Cell Biolabs, USA) using a 2104 EnVision multilabel plate reader (PerkinElmer, USA) at […]. The relative fluorescence units of β-hexosaminidase release were calculated by subtracting the fluorescence intensity of the control group from that of the experimental group.

Row | Compound | Anti-oxidant activity (summary) [1] | Cytotoxicity (summary) (BEAS-2B cells) | Anti-inflammatory activity (summary) [2] | antioxidant activity (ABTS radical scavenging), in words [1] | cellular activity (cell viability) (BEAS-2B cells; BEAS-2B, 2.5 μM, MTS, n = 3) [%] | concentration showing strong cytotoxicity (BEAS-2B cells; BEAS-2B, MTS) [µM] | inhibition of mRNA expression of inflammatory cytokines (TNF-α, IL-6, IL-1β) ([2]; RAW 264.7, 1.25 μM, 24 h pretreatment, LPS 1 μg/mL 6 h, qRT-PCR, n = 3) | effect on LPS-induced IκBα phosphorylation [3] | Allergenic activity (summary) (RBL-2H3 cells)
1 | P3: melittin-derived peptide composed of C-terminal 11 amino acids (LISWIKRKRQQ; ends and bridges not checked; UniProt P01501 59-69, looked up, fragment) | + | - | - |  |  |  |  |  | 
2 | CC[C@H](C)[C@H](NC(=O)CN)C(=O)NCC(=O)N[C@@H](C)C(=O)N[C@H](C(=O)N[C@@H](CC(C)C)C(=O)N[C@@H](CCCCN)C(=O)N[C@H](C(=O)N[C@@H](CC(C)C)C(=O)N[C@H](C(=O)N[C@H](C(=O)NCC(=O)N[C@@H](CC(C)C)C(=O)N1CCC[C@H]1C(=O)N[C@@H](C)C(=O)N[C@@H](CC(C)C)C(=O)N[C@H](C(=O)N[C@@H](CO)C(=O)N[C@@H](Cc1c[nH]c2ccccc12)C(=O)N[C@H](C(=O)N[C@@H](CCCCN)C(=O)N[C@@H](CCCNC(=N)N)C(=O)N[C@@H](CCCCN)C(=O)N[C@@H](CCCNC(=N)N)C(=O)N[C@@H](CCC(N)=O)C(=O)N[C@@H](CCC(N)=O)C(N)=O)[C@@H](C)CC)[C@@H](C)CC)[C@@H](C)O)[C@@H](C)O)C(C)C)C(C)C [Melittin] | + | + | + | comparable to that of resveratrol | 75 | ≥ 5 | significant inhibition | decreased slightly | +
3 | P4: melittin-derived peptide consisting of nine amino acids of the N-terminal of melittin (GIGAVLKVL; Melittin; UniProt P01501 44-52, looked up, fragment) | - | - | - | did not show antioxidant activity |  |  |  |  | 
